Assay results from patent publication US20140255432A1, “SILVESTROL, SILVESTROL ANALOGS AND USES THEREOF” (priority 2011, published 2014).

Assays:
[1] = test system: EBV-positive lymphoblastoid cell lines (LCL); experiment: MTS proliferation assay; format: cell-based, human
Procedure: MTS proliferation assays were performed according the CellTiter 96™ Aqueous Cell Proliferation Assay Technical Bulletin (Promega, Madison, Wis.). 5×10^4 cells were plated in each well of a 96-well plate at 37° C. and assayed for proliferation at 24, 72, and 120 hr.
The direct anti-tumor activity of silvestrol in leukemia and lymphoma models has been document (Hwang 2004; Bordeleau 2008; Cencic 2009; Lucas 2009 Alinari 2011; Saradhi 2011) as well as silvestrol's increased cytotoxicity to malignant B cells compared to normal blood lymphocytes (Lucas 2009). However, activity of silvestrol has not previously been described in spontaneous EBV-transformed cell lines. Silvestrol's activity in fully transformed EBV-positive LCL derived from tumors of SCID mice engrafted with PBMC from EBV-seropositive donors was observed. Six of these EBV-LCL lines were plated in the presence of low concentrations of silvestrol (2-50 nM), and apoptosis (viability assessed by annexin/PI flow cytometry) (FIG. 2A) and proliferation (MTS assay) (FIG. 2B) were evaluated at 24, 72, and 120 hr. Cells were plated at a sufficiently low density so that even after five days there was minimal loss of viability due to nutrient depletion in the untreated control. In FIG. 2A, data are shown as percent annexin-negative and PI-negative cells relative to the time-matched vehicle control. Bars show −/+ standard deviation. […]

LMP-1 = experiment: Immunoblot of LMP-1 in LCL; format: cell-based, Epstein-Barr virus
Procedure: (§1) Cells were harvested and lysed as described (Alinari 2011). Following collection of whole cell lysates, equal amounts of protein were resolved by SDS-PAGE and transferred onto a PVDF membrane (Millipore, Billerica, Mass.). Membrane was probed overnight at 4° C. with β-actin, pSTAT1, pSTAT3, STAT1, STAT3, pAkt, Akt (Cell Signaling Technology, Danvers, Mass.), or LMP-1 (DakoCytomation, Carpinteria, Calif.). After incubation with HRP-conjugated secondary antibody (Cell Signaling Technology), protein was detected with SuperSignal West Pico Chemiluminescent Substrate (Pierce, Rockford, Ill.).
(§2) Whole cell protein levels of LMP-1 was evaluated by immunoblot 72 hr after treating with a single dose (10 nM) of silvestrol in seven LCL lines (FIG. 3A). β-actin was included as a loading control. In FIG. 3B, LCL were incubated 24, 72, and 120 hr in the presence of 10 nM silvestrol or vehicle control. Whole cell lysates were immunoblotted for LMP-1. Results are representative of 3 LCL lines. […] Decreases in other latent gene products involved with EBV-driven B cell transformation were observed as well. In FIG. 3D, LCL were incubated as in FIG. 3B and immunoblotted for STAT1, STAT3, AKT and NF-κB p65.

EBNA2, EBNA3C, BZLF1 = experiment: Immunoblot of other EBV proteins in LCL; format: cell-based, Epstein-Barr virus; details: FIG. 3C
Procedure: as §1, §2

K562 cells = experiment: NK cytotoxicity of K562 cells; format: cell-based; details: 10 nM (FIG. 41)
Description: (§3) FIG. 41 presents data regarding NK cytotoxicity of K562 cells. […] FIG. 42 presents data regarding the cytotoxicity of LCLs pretreated with BZLF 1. […] BZLF1 antigen pulsed LCLs promoted enhanced killing in untreated and silvestrol-treated CTLs. FIG. 43 presents data relating to CD4 IFNgamma release with LCL pretreated with BZLF1. […] FIG. 44 presents data relating to CD4 IFNgamma release with LCL pretreated with BZLF 1. […] FIG. 45 presents data relating to interleukin-6 induction by silvestrol. […] FIG. 46 presents data relating to a change in LMP-1 expression following silvestrol treatment. […] Three cell lines were examined on days 1, 3, and 5 following treatment. FIG. 47 presents data relating to a change in EBNA1 expression following silvestrol treatment. Three cell lines were examined on days 1, 3, and 5 following treatment.

IFNgamma = IFNgamma release / production of immune effector cells; format: cell-based, human
Procedure: CoCx were incubated in the presence of 10 U/ml IL-2 and given a single dose of 0 (vehicle only), 2, 5, or 10 nM silvestrol. At day 14 cells were (A) stimulated non-specifically by addition of 12-O-tetradecanoylphorbol-13-acetate (TPA) and ionomycin (INO) to assay for the ability to release interferon gamma (IFNγ) or (B) by the addition of equal numbers autologous LCL to measure cell mediated response to antigen-induced IFNγ production. IFNγ production was measured by […] flow following four hour stimulation.
as §3

SMILES: COC(=O)[C@H]1[C@@H](O)[C@@]2(O)c3c(OC)cc(O[C@@H]4O[C@@H]([C@H](O)CO)CO[C@H]4OC)cc3O[C@@]2(c2ccc(OC)cc2)[C@@H]1c1ccccc1 [silvestrol]
- growth inhibition vs. untreated control ([1]; 2-50 nM, 24, 72, 120 hr, p<0.0001 averaged over doses and time points): Moderate but significant activity
- IC50 ([1]; Homo sapiens, Lymphoblastoid cell, six EBV-LCL lines, 72 hr, estimated, read-out: 50% growth inhibitory concentration (IC50)): ~40 nM
- LMP1 protein levels (LMP-1; 10 nM, 5 days, cells from seven donors (FIG. 3A)): reduced LMP1 protein levels
- LMP-1 levels over time (LMP-1; single 10 nM dose, 24, 72, 120 hr (FIG. 3B)): fall incrementally as a function of time
- EBNA2 and EBNA3C proteins (EBNA2, EBNA3C, BZLF1): affected
- expression of BZLF1 (EBNA2, EBNA3C, BZLF1): did not affect
- direct killing of K562 cells by NK cells (K562 cells): not adversely affected
- IFNgamma release of CD4+ T cells (IFNgamma; 10 nM, LCL pretreated with BZLF1 (FIG. 43)): not adversely affected
- IFN production of immune effector subsets against irradiated autologous EBV+ LCL (DC9) (IFNgamma; low concentrations (2-10 nM) (FIG. 18)): not abrogated
